From patent US6506708B1, “3-(heterocyclyl)-benzoylpyrazole-derivatives” (BASF Aktiengesellschaft, priority 1998, dated 2003) come the findings set out here.

One data set relates to lamb's-quarters. The data set is described as follows: greenhouse post-emergence herbicidal test. Type of data set: in vivo, Chenopodium album. To be noted: application rates of 0.25 or 0.125 kg/ha. The source says:
(§1) The seeds of the test plants were sown separately for each species. For the post-emergence treatment, the test plants were first grown to a height of 3 to 15 cm, depending on the plant habit, and only then treated with the active compounds which had been suspended or emulsified in water. The test plants were for this purpose either sown directly and grown in the same containers, or they were first grown separately as seedlings and transplanted into the test containers a few days prior to treatment. The application rate for the post-emergence treatment was 0.25, 0.125 or 0.0625 kg of a.s. (active substance)/ha. Depending on the species, the plants were kept at 10-25° C. or […] The test period extended over 2 to 4 weeks. During this time, the plants were tended, and their response to the individual treatments was evaluated. The evaluation was carried out using a scale from 0 to 100. 100 means no emergence of the plants, or complete destruction of at least the aerial parts and 0 means no damage, or normal course of growth. The plants used in the greenhouse experiments were of the following species: [table]

In another data set the test system is green foxtail. The data set is described as follows: greenhouse post-emergence herbicidal test. It counts as in vivo, Setaria eiridis. The note with it: application rates of 0.25 or 0.125 kg/ha.
Excerpt: as §1

In another data set the test system is black nightshade. The data set is described as follows: greenhouse post-emergence herbicidal test. The note with it: application rates of 0.25 or 0.125 kg/ha. Type of data set: in vivo, Solanum nigrum.
Excerpt: as §1

In the next data set the test system is lady's-thumb. The experiment in a line: greenhouse post-emergence herbicidal test. To be noted: application rates of 0.25 or 0.125 kg/ha. Type of data set: in vivo, Polygonum persicaria.
Excerpt: as §1

A further data set has as its system barnyard grass. The data set is described as follows: greenhouse post-emergence herbicidal test. The note with it: application rates of 0.25 or 0.125 kg/ha. Type of data set: in vivo, Echinochloa crus-galli.
Excerpt: as §1

As usually defined, the melting point is the temperature of the solid-liquid transition. With `COc1c(C(=O)c2ccc(S(C)(=O)=O)c(C3=NOCC3)c2Cl)cnn1C(C(C)C)C(C)C` [Compound 2.16], the melting point was 65 to 70 °C.

With `CC(C)(C)n1ncc(C(=O)c2ccc(S(C)(=O)=O)c(C3=NOCC3)c2Cl)c1O` [Compound 2.1, 4-[2-Chloro-3-(4,5-dihydroisoxazol-3-yl)-4-methylsulfonylbenzoyl]-5-hydroxy-1-(1,1-dimethyl-1-ethyl)-1H-pyrazole], the melting point lay in the range of 198 to 200 °C.

`CC(C)C(C)n1ncc(C(=O)c2ccc(S(C)(=O)=O)c(C3=NOCC3)c2Cl)c1O` (stereo not drawn) [Compound 2.9] returned a melting point of 150 to 155 °C.

Consider `CC(C)Oc1c(C(=O)c2ccc(S(C)(=O)=O)c(C3=NOCC3)c2Cl)cnn1C(C)C` [Compound 2.3], for which the melting point lay in the range of 175 to 180 °C.

Turning to `CC(C)C(C(C)C)n1ncc(C(=O)c2ccc(S(C)(=O)=O)c(C3=NOCC3)c2Cl)c1O` [Compound 2.15], the melting point fell in the range of 200 to 205 °C.

Regarding `COc1c(C(=O)c2ccc(S(C)(=O)=O)c(C3=NOCC3)c2Cl)cnn1C(C)C` [Compound 2.5], the melting point was 185 to 190 °C.

`CCOc1c(C(=O)c2ccc(S(C)(=O)=O)c(C3=NOCC3)c2Cl)cnn1C(C)C` [Compound 2.4] came in with a melting point of 150 to 155 °C.

For the compound `CC(C)Oc1c(C(=O)c2ccc(S(C)(=O)=O)c(C3=NOCC3)c2Cl)cnn1C(C)C(C)C` (stereo not drawn) [Compound 2.10], the melting point was 125 to 130 °C.

`COc1c(C(=O)c2cnn(C(C)C)c2O)ccc(S(C)(=O)=O)c1C1=NOCC1` [Compound 2.13] had a melting point of 154 to 156 °C.

With `CC(C)n1ncc(C(=O)c2ccc(S(C)(=O)=O)c(C3=NOCC3)c2Cl)c1O` [Compound 2.2], the melting point fell in the range of 210 to 215 °C. In addition, in the data set on lamb's-quarters, the “post-emergence herbicidal action against lamb's-quarters” value is listed as “very good post-emergence action”. Besides, the “post-emergence herbicidal action against green foxtail” value in the data set on green foxtail is recorded as “very good post-emergence action”. Further, the “post-emergence herbicidal action against black nightshade” value in the data set with black nightshade was “very good post-emergence action”. Besides, the “post-emergence herbicidal action against lady's-thumb” value with lady's-thumb is given as “very good post-emergence action”. The “post-emergence herbicidal action against barnyard grass” value with barnyard grass is “very good post-emergence action”.
